Results taken from the NIST ThermoML archive (doi:10.1021/je200788z).
Numbers after ± are expanded uncertainties.

Key:
[1] = 101.33 kPa, Liquid; for speed of sound: Sing-around technique in a fixed-path interferometer; for mass density: Vibrating tube method
[2] = refractive index (Na D-line) (dimensionless); details: 101.33 kPa, Liquid, Standard Abbe refractometry

Compound | speed of sound ([1]; 303.15 K) [m/s] | mass density ([1]; 303.15 K) [kg/m3] | speed of sound ([1]; 308.15 K) [m/s] | mass density ([1]; 308.15 K) [kg/m3] | speed of sound ([1]; 313.15 K) [m/s] | speed of sound ([1]; 323.15 K) [m/s] | mass density ([1]; 323.15 K) [kg/m3] | speed of sound ([1]; 328.15 K) [m/s] | mass density ([1]; 328.15 K) [kg/m3] | speed of sound ([1]; 333.15 K) [m/s] | mass density ([1]; 333.15 K) [kg/m3] | speed of sound ([1]; 338.15 K) [m/s] | mass density ([1]; 338.15 K) [kg/m3] | speed of sound ([1]; 343.15 K) [m/s] | mass density ([1]; 343.15 K) [kg/m3] | refractive index ([2]; 323.15 K) | refractive index ([2]; 328.15 K) | refractive index ([2]; 333.15 K) | refractive index ([2]; 338.15 K) | refractive index ([2]; 343.15 K) | also measured
CC(C)COC(=O)[C@@H]1CCC[NH2+]1.CCCCCCCCCCCCOS(=O)(=O)[O-] [(S)-2-(isobutoxycarbonyl)pyrrolidinium dodecyl sulfate] | 1413 ± 5 | 1032.22 ± 5.8 | 1397.2 ± 5 | 1028.57 ± 5.7 | 1381.5 ± 5 | 1349.1 ± 5 | 1017.72 ± 5.6 | 1332.9 ± 5 | 1014.21 ± 5.5 | 1316.8 ± 5 | 1010.85 ± 5.5 | 1301.5 ± 5 | 1007.61 ± 5.5 | 1286.2 ± 5 | 1004.98 ± 5.5 | 1.4477 ± 0.0011 | 1.4452 ± 0.0011 | 1.4427 ± 0.0011 | 1.4401 ± 0.0011 | 1.4378 ± 0.0011 | speed of sound ([1]; 288.15 K): 1460.2 ± 5.1 m/s; mass density ([1]; 288.15 K): 1043.22 ± 5.9 kg/m3; speed of sound ([1]; 293.15 K): 1445.2 ± 5.1 m/s; mass density ([1]; 293.15 K): 1039.54 ± 5.8 kg/m3; speed of sound ([1]; 298.15 K): 1429.2 ± 5.1 m/s; mass density ([1]; 298.15 K): 1035.88 ± 5.8 kg/m3; mass density ([1]; 313.15 K): 1024.92 ± 5.7 kg/m3; speed of sound ([1]; 318.15 K): 1366.1 ± 5 m/s; mass density ([1]; 318.15 K): 1021.27 ± 5.6 kg/m3; refractive index ([2]; 288.15 K): 1.4648 ± 0.0011; refractive index ([2]; 293.15 K): 1.4623 ± 0.0011; refractive index ([2]; 298.15 K): 1.4598 ± 0.0011; refractive index ([2]; 303.15 K): 1.4574 ± 0.0011; refractive index ([2]; 308.15 K): 1.4549 ± 0.0011; refractive index ([2]; 313.15 K): 1.4524 ± 0.0011; refractive index ([2]; 318.15 K): 1.45 ± 0.0011
CC(C)OC(=O)CC[C@H]([NH3+])C(=O)OC(C)C.CCCCCCCCCCCCOS(=O)(=O)[O-] | 1367.6 ± 5 | 1046.47 ± 5.9 | 1347.9 ± 5 | 1042.57 ± 5.9 | 1329.5 ± 5 | 1295.3 ± 5 | 1031.13 ± 5.8 | 1279.2 ± 5 | 1027.46 ± 5.7 | 1263.5 ± 5 | 1023.79 ± 5.7 | 1248.3 ± 5 | 1021.2 ± 5.6 | 1233.6 ± 5 | 1016.44 ± 5.6 | 1.4461 ± 0.0011 | 1.4442 ± 0.0011 | 1.4429 ± 0.0011 | 1.441 ± 0.0011 | 1.4392 ± 0.0011 | speed of sound ([1]; 288.15 K): 1439.7 ± 5.1 m/s; mass density ([1]; 288.15 K): 1057.9 ± 6.1 kg/m3; speed of sound ([1]; 293.15 K): 1412.8 ± 5.1 m/s; mass density ([1]; 293.15 K): 1054.11 ± 6 kg/m3; speed of sound ([1]; 298.15 K): 1389 ± 5 m/s; mass density ([1]; 298.15 K): 1050.31 ± 6 kg/m3; mass density ([1]; 313.15 K): 1038.6 ± 5.8 kg/m3; speed of sound ([1]; 318.15 K): 1312 ± 5 m/s; mass density ([1]; 318.15 K): 1034.81 ± 5.8 kg/m3; refractive index ([2]; 288.15 K): 1.4575 ± 0.0011; refractive index ([2]; 293.15 K): 1.4559 ± 0.0011; refractive index ([2]; 298.15 K): 1.4542 ± 0.0011; refractive index ([2]; 303.15 K): 1.4528 ± 0.0011; refractive index ([2]; 308.15 K): 1.4509 ± 0.0011; refractive index ([2]; 313.15 K): 1.4493 ± 0.0011; refractive index ([2]; 318.15 K): 1.4476 ± 0.0011
CC(C)OC(=O)[C@@H]1CCC[NH2+]1.CCCCCCCCCCCCOS(=O)(=O)[O-] [(S)-2-(isopropoxycarbonyl)pyrrolidin-1-ium dodecyl sulfate] | 1402.4 ± 5 | 1043.15 ± 5.9 | 1386.3 ± 5 | 1039.52 ± 5.8 | 1370.7 ± 5 | 1340.6 ± 5 | 1028.73 ± 5.7 | 1326 ± 5 | 1025.22 ± 5.7 | 1311.7 ± 5 | 1021.7 ± 5.6 | 1297.6 ± 5 | 1018.2 ± 5.6 | 1284 ± 5 | 1014.69 ± 5.6 | 1.4461 ± 0.0011 | 1.4446 ± 0.0011 | 1.4432 ± 0.0011 | 1.4414 ± 0.0011 | 1.4398 ± 0.0011 | speed of sound ([1]; 288.15 K): 1455.5 ± 5.1 m/s; mass density ([1]; 288.15 K): 1054.33 ± 6 kg/m3; speed of sound ([1]; 293.15 K): 1436.8 ± 5.1 m/s; mass density ([1]; 293.15 K): 1050.45 ± 6 kg/m3; speed of sound ([1]; 298.15 K): 1419.2 ± 5.1 m/s; mass density ([1]; 298.15 K): 1046.8 ± 5.9 kg/m3; mass density ([1]; 313.15 K): 1035.89 ± 5.8 kg/m3; speed of sound ([1]; 318.15 K): 1355.5 ± 5 m/s; mass density ([1]; 318.15 K): 1032.27 ± 5.8 kg/m3; refractive index ([2]; 288.15 K): 1.4575 ± 0.0011; refractive index ([2]; 293.15 K): 1.4559 ± 0.0011; refractive index ([2]; 298.15 K): 1.4542 ± 0.0011; refractive index ([2]; 303.15 K): 1.4525 ± 0.0011; refractive index ([2]; 308.15 K): 1.451 ± 0.0011; refractive index ([2]; 313.15 K): 1.4492 ± 0.0011; refractive index ([2]; 318.15 K): 1.4478 ± 0.0011
CC(C)OC(=O)C[NH3+].CCCCCCCCCCCCOS(=O)(=O)[O-] [2-isopropoxy-2-oxoethan-1-aminium dodecyl sulfate] | 1373.4 ± 5 | 1025.14 ± 5.7 | 1355.1 ± 5 | 1021.37 ± 5.6 | 1337.6 ± 5 | 1305 ± 5 | 1010.65 ± 5.5 | 1289.6 ± 5 | 1007.14 ± 5.5 | 1274.6 ± 5 | 1003.63 ± 5.4 | 1259.9 ± 5 | 1000.12 ± 5.4 | 1245.8 ± 5 | 996.58 ± 5.4 | 1.4529 ± 0.0011 | 1.4497 ± 0.0011 | 1.4465 ± 0.0011 | 1.4441 ± 0.0011 | 1.4414 ± 0.0011 | mass density ([1]; 313.15 K): 1017.68 ± 5.6 kg/m3; speed of sound ([1]; 318.15 K): 1320.9 ± 5 m/s; mass density ([1]; 318.15 K): 1014.16 ± 5.5 kg/m3; refractive index ([2]; 303.15 K): 1.463 ± 0.0011; refractive index ([2]; 308.15 K): 1.4603 ± 0.0011; refractive index ([2]; 313.15 K): 1.4576 ± 0.0011; refractive index ([2]; 318.15 K): 1.4549 ± 0.0011
CC(C)COC(=O)CC[C@H]([NH3+])C(=O)OCC(C)C.CCCCCCCCCCCCOS(=O)(=O)[O-] | – | – | – | – | – | 1330.6 ± 5 | 1014.45 ± 5.6 | 1314.4 ± 5 | 1010.78 ± 5.5 | 1299.9 ± 5 | 1007.13 ± 5.5 | 1284.2 ± 5 | 1003.54 ± 5.4 | 1270.5 ± 5 | 1000 ± 5.4 | 1.4472 ± 0.0011 | 1.4453 ± 0.0011 | 1.4432 ± 0.0011 | 1.4414 ± 0.0011 | 1.4393 ± 0.0011 | –
